According to US20260070902A1, “SULFONYL DERIVATIVES AS CCR6 INHIBITORS” (Hoffmann-La Roche Inc., priority 2022, published 2026):

Tests used:
human CCR6 [1] = molecular target: T1, human CCR6 (Homo sapiens, UniProt P51684); test: CHO-K1 CCR6 chemotaxis assay towards CCL20; format: cell-based; conditions: relative -Log IC50; CHO-K1 cells overexpressing human CCR6; migration towards 100 ng/ml CCL20; 4 h
T1 sequence (P51684 1-374): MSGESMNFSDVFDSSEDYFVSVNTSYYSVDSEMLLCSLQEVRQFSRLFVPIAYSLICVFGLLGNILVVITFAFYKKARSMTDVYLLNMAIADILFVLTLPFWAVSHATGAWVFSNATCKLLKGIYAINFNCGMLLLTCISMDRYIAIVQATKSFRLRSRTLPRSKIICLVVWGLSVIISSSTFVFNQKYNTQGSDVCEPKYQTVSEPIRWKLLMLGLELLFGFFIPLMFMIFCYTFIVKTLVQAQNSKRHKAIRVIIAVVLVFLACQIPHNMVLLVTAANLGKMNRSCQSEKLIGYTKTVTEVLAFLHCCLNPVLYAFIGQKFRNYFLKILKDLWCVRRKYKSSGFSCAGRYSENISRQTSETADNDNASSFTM
Summary of the method: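 Human CCR6-overexpressing CHO-K1 cells (2*10^6 cells/ml) were preincubated 30 min at 37 °C with compound (0.2% DMSO), then allowed to migrate 4 h through 8 µm Transwell pores toward 100 ng/ml CCL20. Migrated cells were counted by CellTiter Glo. −Log IC50 came from four-parameter fits normalised to DMSO without/with CCL20.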

human CCR6 [2] = molecular target: T1, human CCR6; test: Human CCR6-CRE reporter assay; format: cell-based; design: The second construct contained the open reading frame of human CCR6 in the pUNO1 backbone; host or cells: 293FT cells; conditions: relative -Log IC50; 293FT cells transfected with human CCR6 and CRE-luciferase reporter; 6 μM Forskolin, 6 nM CCL20; 5 h
Summary of the method: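 293FT cells transiently co-transfected with human CCR6 and a CRE-luc2P reporter, used 48 h later. Compounds incubated with cells in medium containing 6 μM Forskolin and 6 nM CCL20 (assay-medium levels), 0.1% DMSO final, 5 h at 37° C; luminescence read, relative −Log IC50 from four-parameter fit.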

## Cc1n[nH]c2cnc(-c3ccc(S(=O)(=O)[C@H]4CC[C@H](Nc5ccc(S(F)(F)(F)(F)F)cc5)CC4)cc3)cc12 [Example 142, 4-(pentafluoro-λ^6-sulfanyl)-N-[trans-4-(4-{3-methyl-1H-pyrazolo[3,4-c]pyridin-5-yl}benzenesulfonyl)cyclohexyl]aniline]
Human CCR6 [1]
  IC50: 25.1 nM
Human CCR6 [2]
  IC50: 251 nM

## O=S(=O)(c1ccc(-c2cc3cn[nH]c3cn2)cc1)[C@H]1CC[C@H](Nc2ccc(S(F)(F)(F)(F)F)cc2)CC1 [Example 147, 4-(pentafluoro-λ^6-sulfanyl)-N-[trans-4-(4-{1H-pyrazolo[3,4-c]pyridin-5-yl}benzenesulfonyl)cyclohexyl]aniline]
Human CCR6 [1]
  IC50: 39.8 nM
Human CCR6 [2]
  IC50: 200 nM

## O=S(=O)(c1ccc(-c2cc(F)c3nccn3c2)cc1)[C@H]1CC[C@H](Nc2ccc(S(F)(F)(F)(F)F)cc2)CC1 [Example 152, 4-(pentafluoro-λ^6-sulfanyl)-N-[trans-4-(4-{8-fluoroimidazo[1,2-a]pyridin-6-yl}benzenesulfonyl)cyclohexyl]aniline]
Human CCR6 [1]
  IC50: 10 nM
Human CCR6 [2]
  IC50: 100 nM

## O=C1NCCc2sc(-c3ccc(S(=O)(=O)[C@H]4CC[C@H](Nc5ccc(S(F)(F)(F)(F)F)cc5)CC4)cc3)cc21 [Example 153, 2-(4-{[trans-4-{[4-(pentafluoro-λ^6-sulfanyl)phenyl]amino}cyclohexyl]sulfonyl}phenyl)-4H,5H,6H,7H-thieno[3,2-c]pyridin-4-one]
Human CCR6 [1]
  IC50: 15.8 nM
Human CCR6 [2]
  IC50: 158 nM

## O=C1NCCCn2cc(-c3ccc(S(=O)(=O)[C@H]4CC[C@H](Nc5ccc(S(F)(F)(F)(F)F)cc5)CC4)cc3)cc21 [Example 155, 8-(4-{[trans-4-{[4-(pentafluoro-λ^6-sulfanyl)phenyl]amino}cyclohexyl]sulfonyl}phenyl)-1H,2H,3H,4H,5H-pyrrolo[1,2-a][1,4]diazepin-1-one]
Human CCR6 [1]
  IC50: 31.6 nM
Human CCR6 [2]
  IC50: 158 nM

## O=C1NCCn2cc(-c3ccc(S(=O)(=O)[C@H]4CC[C@H](Nc5ccc(S(F)(F)(F)(F)F)cc5)CC4)cc3)cc21 [Example 156, 7-(4-{[trans-4-{[4-(pentafluoro-λ^6-sulfanyl)phenyl]amino}cyclohexyl]sulfonyl}phenyl)-1H,2H,3H,4H-pyrrolo[1,2-a]pyrazin-1-one]
Human CCR6 [1]
  IC50: 39.8 nM
Human CCR6 [2]
  IC50: 158 nM

## NC(=O)c1cc(-c2ccc(S(=O)(=O)[C@H]3CC[C@H](Nc4ccc(S(F)(F)(F)(F)F)cc4)CC3)cc2)cn2ccnc12 [Example 157, 6-(4-{[trans-4-{[4-(pentafluoro-λ^6-sulfanyl)phenyl]amino}cyclohexyl]sulfonyl}phenyl)imidazo[1,2-a]pyridine-8-carboxamide]
Human CCR6 [1]
  IC50: 2.51 nM
Human CCR6 [2]
  IC50: 79.4 nM

## NC(=O)c1cc(-c2ccc(S(=O)(=O)[C@H]3CC[C@H](Nc4ccc(S(F)(F)(F)(F)F)cc4)CC3)cc2)co1 [Example 158, 4-(4-{[trans-4-{[4-(pentafluoro-λ^6-sulfanyl)phenyl]amino}cyclohexyl]sulfonyl}phenyl)furan-2-carboxamide]
Human CCR6 [1]
  IC50: 10 nM
Human CCR6 [2]
  IC50: 100 nM

## Nc1cc(-c2ccc(S(=O)(=O)[C@H]3CC[C@H](Nc4ccc(S(F)(F)(F)(F)F)cc4)CC3)cc2)cn2ccnc12 [Example 159, 6-(4-{[trans-4-{[4-(pentafluoro-λ^6-sulfanyl)phenyl]amino}cyclohexyl]sulfonyl}phenyl)imidazo[1,2-a]pyridin-8-amine]
Human CCR6 [1]
  IC50: 12.6 nM
Human CCR6 [2]
  IC50: 63.1 nM

## O=S(=O)(c1ccc(-c2ccc3nnc(C4CNC4)n3c2)cc1)N1CCC(Nc2ccc(S(F)(F)(F)(F)F)cc2)CC1 [Example 167, 1-{4-[3-(azetidin-3-yl)-[1,2,4]triazolo[4,3-a]pyridin-6-yl]benzenesulfonyl}-N-[4-(pentafluoro-λ^6-sulfanyl)phenyl]piperidin-4-amine]
Human CCR6 [1]
  IC50: 251 nM
Human CCR6 [2]
  IC50: 251 nM
